Values quoted from earlier work, collected in US20130195827A1, “NUTRIGENOMIC METHODS TO OVERCOME CARBOHYDRATE BINGEING AND OVEREATING” (priority 2011, published 2013).

Experiments:
lipolysis = details: in vitro, p<0.01

Molecule | increase of leptin secretion (leptin secretion) | basal rate of lipolysis (lipolysis)
Insulin: hormone insulin | 25% | –
C[C@]12CCC(=O)C=C1CC[C@@H]1[C@@H]2[C@@H](O)C[C@@]2(C)[C@H]1CC[C@]2(O)C(=O)CO [cortisol] | – | significantly reduced
